# Results taken from US20240270762A1, “PENICILLIN-BINDING PROTEIN INHIBITORS” (priority 2021, published 2024).
# Experiments:
# [1] = tested on: N. gonorrhoeae CDC-0197; experiment: Liquid broth MIC in Fastidious broth; conditions: Neisseria gonorrhoeae, CDC0197, read-out: Minimum Inhibitory Concentration (MIC), N. gonorrhoeae CDC-0197
# [2] = tested on: K. pneumoniae SI-117; experiment: microbe, parasite or virus in culture; assay type: cell-based; conditions: Klebsiella pneumoniae, SI117, read-out: MIC K. pneumoniae SI-117
# [3] = tested on: K. pneumoniae UMM; experiment: microbe, parasite or virus in culture; assay type: cell-based; conditions: Klebsiella pneumoniae, read-out: MIC K. pneumoniae UMM
# [4] = tested on: N. gonorrhoeae MS11; experiment: Liquid broth MIC in Fastidious broth; conditions: Neisseria gonorrhoeae, MS11, read-out: Minimum Inhibitory Concentration (MIC), N. gonorrhoeae MS11
# [5] = tested on: N. gonorrhoeae WHO M; experiment: Liquid broth MIC in Fastidious broth; conditions: Neisseria gonorrhoeae, read-out: Minimum Inhibitory Concentration (MIC), N. gonorrhoeae WHO M
# [6] = tested on: N. gonorrhoeae WHO L; experiment: Liquid broth MIC in Fastidious broth; conditions: Neisseria gonorrhoeae, read-out: Minimum Inhibitory Concentration (MIC), N. gonorrhoeae WHO L
# [7] = tested on: N. gonorrhoeae WHO K; experiment: Liquid broth MIC in Fastidious broth; conditions: Neisseria gonorrhoeae, read-out: Minimum Inhibitory Concentration (MIC), N. gonorrhoeae WHO K
# [8] = tested on: A. baumannii ATCC 19606; experiment: microbe, parasite or virus in culture; assay type: cell-based; conditions: Acinetobacter baumannii, ATCC19606, read-out: MIC, A. baumannii ATCC 19606
# [9] = tested on: E. coli ATCC 25922; experiment: microbe, parasite or virus in culture; assay type: cell-based; conditions: Escherichia coli, ATCC25922, read-out: MIC E. coli 25922
# [10] = tested on: N. gonorrhoeae WHO Q; experiment: Liquid broth MIC in Fastidious broth; conditions: Neisseria gonorrhoeae, read-out: Minimum Inhibitory Concentration (MIC), N. gonorrhoeae WHO Q
# [11] = tested on: P. aeruginosa ATCC 35151; experiment: microbe, parasite or virus in culture; assay type: cell-based; conditions: Pseudomonas aeruginosa, ATCC35151, read-out: MIC P. aeruginosa ATCC 35151
# [12] = target: T1, PBP3 from Escherichia coli (K-12) (Escherichia coli, UniProt P0AD68); experiment: Bocillin-FL fluorescence polarization competition binding, E. coli PBP3
# T1 construct: made in house
# T1 sequence (P0AD68 1-577): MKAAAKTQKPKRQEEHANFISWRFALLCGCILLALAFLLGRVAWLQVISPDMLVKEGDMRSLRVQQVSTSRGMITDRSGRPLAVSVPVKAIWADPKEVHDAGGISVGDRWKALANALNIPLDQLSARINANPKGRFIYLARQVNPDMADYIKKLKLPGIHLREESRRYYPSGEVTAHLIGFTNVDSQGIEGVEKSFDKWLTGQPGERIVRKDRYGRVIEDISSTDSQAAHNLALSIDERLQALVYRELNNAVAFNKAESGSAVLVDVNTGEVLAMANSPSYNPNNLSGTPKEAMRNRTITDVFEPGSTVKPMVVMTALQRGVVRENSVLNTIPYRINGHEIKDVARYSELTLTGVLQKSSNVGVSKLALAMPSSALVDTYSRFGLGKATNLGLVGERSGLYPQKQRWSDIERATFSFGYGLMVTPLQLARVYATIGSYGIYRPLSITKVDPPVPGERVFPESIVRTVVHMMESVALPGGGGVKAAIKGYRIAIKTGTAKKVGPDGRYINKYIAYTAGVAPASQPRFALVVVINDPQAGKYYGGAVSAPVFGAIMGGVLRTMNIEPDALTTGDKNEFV
# In short: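 Purified PBPs pre-incubated with inhibitor (E. coli PBP3 1.5 μM, 30 min; P. aeruginosa PBP3 0.75 μM, A. baumannii PBP1a 1 μM and PBP3 0.2 μM, 15 min), then Bocillin-FL 0.1 μM (0.05 μM for PBP1a) added; FP read up to 60 min. EC50 = concentration halving bound Bocillin-FL.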
# [13] = tested on: E. coli AG100A; experiment: Broth microdilution MIC in CAMHB; assay type: cell-based; conditions: Escherichia coli, read-out: MIC E. coli AG100A
# [14] = tested on: E. coli D22; experiment: microbe, parasite or virus in culture; assay type: cell-based; conditions: Escherichia coli, D22, read-out: MIC E. coli D22
# [15] = tested on: N. gonorrhoeae WHO Z; experiment: Liquid broth MIC in Fastidious broth; conditions: Neisseria gonorrhoeae, read-out: Minimum Inhibitory Concentration (MIC), N. gonorrhoeae WHO Z
# [16] = tested on: N. gonorrhoeae ATCC 49226; experiment: Liquid broth MIC in Fastidious broth; conditions: Neisseria gonorrhoeae, ATCC49226, read-out: Minimum Inhibitory Concentration (MIC), N. gonorrhoeae ATCC 49226
Compound,MIC [1],MIC [2],MIC [3],MIC [4],MIC [5],MIC [6],MIC [7],MIC [8],MIC [9],MIC [10],MIC [11],EC50 [12],MIC [13],MIC [14],MIC [15],MIC [16]
"CC(C)S(=O)(=O)NC(C(=O)N[C@H]1Cc2cccc(C(=O)O)c2OB1O)c1ccc(P(=O)(O)O)cc1 (stereo partly drawn) [Example 60, (3R)-2-hydroxy-3-(2-((1-methylethyl)sulfonamido)-2-(4-phosphonophenyl)acetamido)-3,4-dihydro-2H-benzo[e][1,2]oxaborinine-8-carboxylic acid]",16 to 32 µg/mL,> 128 µg/mL,> 128 µg/mL,16 to 32 µg/mL,4 to 8 µg/mL,16 to 32 µg/mL,16 to 32 µg/mL,> 128 µg/mL,> 128 µg/mL,16 to 32 µg/mL,32 to 64 µg/mL,> 250 µM,> 128 µg/mL,> 128 µg/mL,16 to 32 µg/mL,16 to 32 µg/mL
"CC(C)(C)C(=O)NC(C(=O)N[C@H]1Cc2cccc(C(=O)O)c2OB1O)c1ccc(P(=O)(O)O)cc1 (stereo partly drawn) [Example 29, (3R)-2-hydroxy-3-(2-(4-phosphonophenyl)-2-pivalamidoacetamido)-3,4-dihydro-2H-benzo[e][1,2]oxaborinine-8-carboxylic acid]",16 to 32 µg/mL,> 128 µg/mL,32 to 64 µg/mL,16 to 32 µg/mL,4 to 8 µg/mL,16 to 32 µg/mL,16 to 32 µg/mL,32 to 64 µg/mL,> 128 µg/mL,16 to 32 µg/mL,2 to 4 µg/mL,50 to 250 µM,> 128 µg/mL,8 to 16 µg/mL,16 to 32 µg/mL,16 to 32 µg/mL
"CS(=O)(=O)N1CCN(C(=O)N[C@@H](C(=O)N[C@H]2Cc3ccc(F)c(C(=O)O)c3OB2O)c2ccc(P(=O)(O)O)c(F)c2F)C1=O [Example 16, (R)-3-((R)-2-(2,3-difluoro-4-phosphonophenyl)-2-(3-(methylsulfonyl)-2-oxoimidazolidine-1-carboxamido)acetamido)-7-fluoro-2-hydroxy-3,4-dihydro-2H-benzo[e][1,2]oxaborinine-8-carboxylic acid]",< 1 µg/mL,> 128 µg/mL,> 128 µg/mL,< 1 µg/mL,< 1 µg/mL,< 1 µg/mL,< 1 µg/mL,> 128 µg/mL,> 128 µg/mL,< 1 µg/mL,2 to 4 µg/mL,< 10 µM,32 to 64 µg/mL,8 to 16 µg/mL,< 1 µg/mL,< 1 µg/mL
"CCN1CCN(C(=O)N[C@@H](C(=O)N[C@H]2Cc3ccc(F)c(C(=O)O)c3OB2O)c2ccc(P(=O)(O)O)cc2)C(=O)C1=O (single isomer, unassigned) [Example 10]",< 1 µg/mL,> 128 µg/mL,> 128 µg/mL,< 1 µg/mL,< 1 µg/mL,< 1 µg/mL,< 1 µg/mL,32 to 64 µg/mL,> 128 µg/mL,< 1 µg/mL,< 1 µg/mL,< 10 µM,32 to 64 µg/mL,8 to 16 µg/mL,< 1 µg/mL,< 1 µg/mL
CN1CCC[C@H]1C(=O)NC(C(=O)N[C@H]1Cc2cccc(C(=O)O)c2OB1O)c1ccc(P(=O)(O)O)cc1 (stereo partly drawn) [Example 66],16 to 32 µg/mL,> 128 µg/mL,> 128 µg/mL,16 to 32 µg/mL,4 to 8 µg/mL,16 to 32 µg/mL,16 to 32 µg/mL,> 128 µg/mL,> 128 µg/mL,16 to 32 µg/mL,8 to 16 µg/mL,50 to 250 µM,32 to 64 µg/mL,32 to 64 µg/mL,16 to 32 µg/mL,16 to 32 µg/mL
"CCN1CCN(C(=O)NC(C(=O)N[C@H]2Cc3cccc(C(=O)O)c3OB2O)c2cccc(CP(=O)(O)O)c2)C(=O)C1=O (stereo partly drawn) [Example 22, (3R)-3-(2-(4-ethyl-2,3-dioxopiperazine-1-carboxamido)-2-(3-(phosphonomethyl)phenyl)acetamido)-2-hydroxy-3,4-dihydro-2H-benzo[e][1,2]oxaborinine-8-carboxylic acid]",1 to 2 µg/mL,> 128 µg/mL,32 to 64 µg/mL,1 to 2 µg/mL,< 1 µg/mL,16 to 32 µg/mL,4 to 8 µg/mL,32 to 64 µg/mL,32 to 64 µg/mL,1 to 2 µg/mL,< 1 µg/mL,< 10 µM,8 to 16 µg/mL,2 to 4 µg/mL,1 to 2 µg/mL,1 to 2 µg/mL
